Source: US20100210652A1, “Method For Controlling Fungal Pests” (priority 2006, published 2010)

Legend:
[1] = system: sensitive Plasmopara viticola strains; test: Activity against sensitive Plasmopara viticola strains on grapevine plants (Riesling); format: in vivo; conditions: final evaluation on day 6
Method: (§1) Study on the activity of the four carboxamide fungicides against sensitive and resistant Plasmopara viticola strains.
(§2) Four-week old grapevine plants (Riesling) with 6-8 leaves are treated with 50 ml of a solution which contains the harmful fungi (200 000 spores of the fungus Plasmopara viticola per milliliter). Tests are carried out both with sensitive and with resistant strains.
(§3) The fungicidal active substances described in Example 1 are applied both one day before the treatment with the harmful fungi (preventative treatment) and in each case one day after the treatment with the harmful fungi (curative treatment). After the treatment with the harmful fungi, the plants are left to stand overnight at 95% atmospheric humidity and a temperature of 18° C. This is followed by a 6-day observation phase and a final evaluation on day 6, the test plants being exposed to daylight for 12 hours and left to stand in the dark for 12 hours.
(§4) To promote spore development, the undersides of the grapevine leaves are sprayed with water 24 hours before carrying out the final evaluation and left to stand.
(§5) The experiments are evaluated by determining the percentage of diseased leaf area of each plant. A high percentage means a high disease level caused by the harmful fungus, while a low percentage means a low disease level caused by the harmful fungus.

[2] = system: resistant Plasmopara viticola strains; test: Activity against resistant Plasmopara viticola strains on grapevine plants (Riesling); format: in vivo; conditions: for diseased leaf area: resistant fungi, grapevine (Riesling), final evaluation on day 6; for assessment in words of the treatment of resistant fungal strains: preventative treatment
Method: as §1, §2, §3, §4, §5

[3] = curative treatment (one day after treatment with the harmful fungi)
[4] = preventative treatment (one day before treatment with the harmful fungi)

SMILES	diseased leaf area [1, 3] [%]	diseased leaf area [1, 4] [%]	diseased leaf area [2, 3] [%]	diseased leaf area [2, 4] [%]	assessment in words of the treatment of resistant fungal strains [2]
Cc1ccc(C(C)NC(=O)[C@@H](NC(=O)OC(C)C)C(C)C)cc1 (stereo partly drawn) [stock solution C, isopropyl 2-methyl-1-[(1-p-tolylethyl)carbamoyl]-(S)-propylcarbamate]	0	0	75	70	no satisfactory results
CC(C)OC(=O)N[C@H](C(=O)N[C@H](C)c1nc2ccc(F)cc2s1)C(C)C [stock solution D, isopropyl[(S)-1-{[(R)-1-(6-fluoro-1,3-benzothiazol-2-yl)ethyl]carbamoyl}-2-methylpropyl]carbamate]	0	0	70	55	no satisfactory results
C#CCOc1ccc(CCNC(=O)C(OCC#C)c2ccc(Cl)cc2)cc1OC (racemic) [stock solution B, (RS)-2-(4-chlorophenyl)-N-[3-methoxy-4-(prop-2-ynyloxy)phenethyl]-2-(prop-2-ynyloxy)acetamide]	0	0	65	8	effective
COc1ccc(C(=CC(=O)N2CCOCC2)c2ccc(Cl)cc2)cc1OC [stock solution A, (E,Z)-4-[3-(4-chlorophenyl)-3-(3,4-dimethoxyphenyl)acryloyl]morpholine]	0	0	70	0.5	effective
